Source: US9359338B2, “Cyclopropanecarboxamido-substitute aromatic compounds as anti-tumor agents” (Crown Bioscience Inc. (Taiwan), priority 2012, dated 2016)
Read-outs that look alike come from different tables or passages of the source.

Tests used:
PLC-PRF-5 cells = assay: Inhibition of proliferation of PLC-PRF-5 cells (ATPlite); type: cell-based; conditions: Homo sapiens
How it was run: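 Antiproliferative IC50 from luminescent ATP detection (ATPlite) after 96 h compound exposure at 37 °C. Cells grown in DMEM plus 10% FBS and allowed 2 h to settle, then dosed with eight 3-fold dilutions topping at 30 μM final, DMSO 0.3%.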

KDR kinase (790-1356 AA) = KDR kinase (790-1356 AA) (Homo sapiens (Human), UniProt P35968); assay: Inhibitory activity at KDR kinase (Lance Ultra Ulight-TK assay); type: biochemical
How it was run: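 Kinase (20 nM final) and compound were premixed 20 min at 30 °C, then phosphorylation ran 2 h at 30 °C with ATP at 90 μM and Ulight-TK substrate at 50 μM, pH 7.5, Mg2+ and Mn2+ present.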

pERK in MDA-MB-231 cells = assay: Inhibitory activity at pERK (In Cell Western, MDA-MB-231 cells); type: cell-based; conditions: Homo sapiens
How it was run: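 pERK was measured by in-cell immunofluorescence (PI nuclear counterstain, Acumen read-out) in fixed MDA-MB-231 cells. Compound exposure lasted 2 h in DMEM with 0.1% BSA, using eight 3-fold dilutions starting at 30 μM final and 0.3% DMSO. IC50 values were derived from the resulting curves.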

B-Raf kinase = B-Raf kinase (Homo sapiens (Human), UniProt P15056); assay: Inhibitory activity at B-Raf kinase (ADP-GLO assay); type: biochemical
How it was run: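 B-Raf (5 nM) was preincubated with compound (0.25% DMSO final) for 20 min at 30 °C in 50 mM Hepes pH 7.5, 10 mM Mg²⁺, 1 mM EGTA, 2 mM DTT. Reaction with 6 μM ATP and 30 nM GST-MEK1 ran 2 hrs at 30 °C. ADP was detected by ADP-GLO luminescence, giving IC50 values.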

tumor = assay: In vivo anti-tumor activity in pre-clinical animal studies; conditions: compared with compounds of the invention
[1] = Half-life in pre-clinical animal studies; type: in vivo; conditions: compared with compounds of the invention
[2] = PLC-PRF-5, PLC-PRF-5 cells, read-out: PLC-PRF-5 cell proliferation IC50
[3] = MDA-MB-231, MDA-MB-231 cells, read-out: MDA-MB-231 pERK IC50

Sequence of KDR kinase (790-1356 AA) (P35968 790-1356): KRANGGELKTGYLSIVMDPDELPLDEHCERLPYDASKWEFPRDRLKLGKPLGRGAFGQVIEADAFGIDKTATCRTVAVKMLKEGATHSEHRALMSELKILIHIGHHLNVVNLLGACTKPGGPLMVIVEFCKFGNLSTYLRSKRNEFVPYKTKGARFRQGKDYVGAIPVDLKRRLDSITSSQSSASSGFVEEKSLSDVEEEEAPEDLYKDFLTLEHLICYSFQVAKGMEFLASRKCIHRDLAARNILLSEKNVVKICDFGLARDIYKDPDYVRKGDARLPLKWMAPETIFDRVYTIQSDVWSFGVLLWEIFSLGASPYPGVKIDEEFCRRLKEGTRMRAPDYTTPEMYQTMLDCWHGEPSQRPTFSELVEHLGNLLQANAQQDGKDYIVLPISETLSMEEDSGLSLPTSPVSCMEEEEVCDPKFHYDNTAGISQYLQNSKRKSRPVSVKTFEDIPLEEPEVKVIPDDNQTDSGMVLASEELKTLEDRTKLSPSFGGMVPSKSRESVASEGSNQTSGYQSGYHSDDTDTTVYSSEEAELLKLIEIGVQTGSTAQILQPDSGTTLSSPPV
Sequence of B-Raf kinase (P15056 416-766): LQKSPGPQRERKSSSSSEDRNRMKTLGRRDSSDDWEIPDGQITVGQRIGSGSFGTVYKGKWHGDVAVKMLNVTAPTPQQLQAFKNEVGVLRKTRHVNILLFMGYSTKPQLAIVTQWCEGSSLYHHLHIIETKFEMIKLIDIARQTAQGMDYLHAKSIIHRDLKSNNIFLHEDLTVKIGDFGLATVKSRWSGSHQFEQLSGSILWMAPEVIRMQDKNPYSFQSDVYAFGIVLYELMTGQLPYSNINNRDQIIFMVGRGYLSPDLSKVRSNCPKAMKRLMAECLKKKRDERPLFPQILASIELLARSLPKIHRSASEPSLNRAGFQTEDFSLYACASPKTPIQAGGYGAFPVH

SMILES | IC50 (KDR kinase (790-1356 AA)) [nM] | IC50 (pERK in MDA-MB-231 cells; [3]) [nM] | IC50 (B-Raf kinase) [nM] | IC50 (PLC-PRF-5 cells; [2]) [nM] | IC50 (PLC-PRF-5 cells; PLC-PRF-5, read-out: PLC-PRF-5 cell proliferation IC50) [nM] | IC50 (pERK in MDA-MB-231 cells; MDA-MB-231, read-out: MDA-MB-231 pERK IC50) [nM] | in vivo anti-tumor activities (tumor) | half-life [1]
N#Cc1cc(NC(=O)Nc2ccc(Oc3ccnc(NC(=O)C4CC4)c3)c(F)c2)cc(C(F)(F)F)c1 [Exe. 190] | 11.9 | 74.3 | 87 | 875 |  |  |  | 
Cc1cc(Oc2ccnc(NC(=O)C3CC3)c2)ccc1NC(=O)Nc1ccc(F)c(C(F)(F)F)c1 [Exe. 191] | 11.8 | 9.4 | 10 | 2530 |  |  |  | 
Cc1cc(Oc2ccnc(NC(=O)C3CC3)c2)ccc1NC(=O)Nc1ccc(Cl)c(C(C)(F)F)c1 [Exe. 199] | 14 | 11 | 11.7 | 3700 |  |  |  | 
O=C(Nc1ccc(F)c(C(F)(F)F)c1)Nc1ccc(Oc2ccnc(NC(=O)C3CC3)c2)cc1F [Exe. 205] | 25.1 | 9.2 | 13 | 1090 |  |  |  | 
O=C(Nc1cc(F)cc(C(F)(F)F)c1)Nc1ccc(Oc2ccnc(NC(=O)C3CC3)c2)cc1F [Exe. 208] | 14.9 | 9.8 | 37 | 640 |  |  |  | 
O=C(Nc1ccc(Oc2ccnc(NC(=O)C3CC3)c2)cc1F)Nc1cc(C(F)(F)F)ccc1Cl [Exe. 210] | 11.8 | 17 | 19 | 636 |  |  |  | 
O=C(Nc1cccc(C(F)(F)F)c1)Nc1ccc(Oc2ccnc(NC(=O)C3CC3)c2)cc1F [Exe. 211] | 7.8 | 2.3 | 6.4 | 190 |  |  |  | 
O=C(Nc1cc(N2CC(F)(F)C2)cc(C(F)(F)F)c1)Nc1ccc(Oc2ccnc(NC(=O)C3CC3)c2)cc1F [Exe. 212] | 5.5 | 21.1 | 20.1 | 177 |  |  |  | 
CC(F)(F)c1ccnc(NC(=O)Nc2ccc(Oc3ccnc(NC(=O)C4CC4)c3)cc2F)c1 [Exe. 216] | 10.6 | 11.8 | 10 | 536 |  |  |  | 
CC(F)(F)c1ccc(F)c(NC(=O)Nc2ccc(Oc3ccnc(NC(=O)C4CC4)c3)cc2F)c1 [Exe. 218] | 9.1 | 3.1 | 7.8 | 21 |  |  |  | 
CC(F)(F)c1cc(NC(=O)Nc2ccc(Oc3ccnc(NC(=O)C4CC4)c3)cc2F)ccc1Cl [Exe. 219] | 11 | 8.8 | 8.3 | 632 |  |  |  | 
CC(F)(F)c1cc(NC(=O)Nc2ccc(Oc3ccnc(NC(=O)C4CC4)c3)cc2F)ccc1F [Exe. 220] | 14.9 | 4.6 | 7.1 | 240 |  |  |  | 
N#Cc1ccc(NC(=O)Nc2ccc(Oc3ccnc(NC(=O)C4CC4)c3)cc2F)cc1Cl [Exe. 221] | 6.7 |  | 11 |  | 1270 | 7.8 |  | 
Cc1ccc(Oc2ccnc(NC(=O)C3CC3)c2)cc1NC(=O)Nc1cc(F)cc(C(F)(F)F)c1 [Exe. 224] | 9.5 | 22.4 | 29 | 4700 |  |  |  | 
Cc1ccc(Oc2ccnc(NC(=O)C3CC3)c2)cc1NC(=O)Nc1cc(C(F)(F)F)ccc1F [Exe. 225] | 10.7 | 12 | 11 | 5720 |  |  |  | 
Cc1cc(NC(=O)Nc2cccc(C(F)(F)F)c2)ccc1Oc1ccnc(NC(=O)C2CC2)c1 [Exe. 231] | 11.6 | 7.1 | 12.5 | 310 |  |  |  | 
Cc1cc(NC(=O)Nc2cccc(OC(F)(F)F)c2)ccc1Oc1ccnc(NC(=O)C2CC2)c1 [Exe. 232] | 11 | 10.9 | 14 | 418 |  |  |  | 
Cc1cc(NC(=O)Nc2cc(C(C)(F)F)ccc2F)ccc1Oc1ccnc(NC(=O)C2CC2)c1 [Exe. 234] | 9.9 | 6.8 | 16 | 63 |  |  |  | 
Cc1cc(NC(=O)Nc2ccc(Cl)c(C(C)(F)F)c2)ccc1Oc1ccnc(NC(=O)C2CC2)c1 [Exe. 235] | 13.4 | 12.2 | 22 | 1290 |  |  |  | 
CNC(=O)c1cc(Oc2ccc(NC(=O)Nc3ccc(Cl)c(C(F)(F)F)c3)cc2)ccn1 [sorafenib] |  |  |  |  |  |  | weaker than that of many of the compounds in the present invention | shorter half-life than many of the compounds in this invention

The next lines start with results.

IC50 (KDR kinase (790-1356 AA)) [nM] | IC50 (pERK in MDA-MB-231 cells; [3]) [nM] | IC50 (B-Raf kinase) [nM] | SMILES | IC50 (PLC-PRF-5 cells; [2]) [nM] | IC50 (PLC-PRF-5 cells; PLC-PRF-5, read-out: PLC-PRF-5 cell proliferation IC50) [nM] | IC50 (pERK in MDA-MB-231 cells; MDA-MB-231, read-out: MDA-MB-231 pERK IC50) [nM] | in vivo anti-tumor activities (tumor) | half-life [1]
10.9 | 7.4 | 6.8 | Cc1cc(Oc2ccnc(NC(=O)C3CC3)c2)ccc1NC(=O)Nc1cccc(C(F)(F)F)c1 [Exe. 193] | 2300 |  |  |  | 
10.5 | 9.5 | 8.8 | Cc1cc(Oc2ccnc(NC(=O)C3CC3)c2)ccc1NC(=O)Nc1cccc(OC(F)(F)F)c1 [Exe. 194] | 2320 |  |  |  | 
6.1 | 10.1 | 13 | Cc1cc(Oc2ccnc(NC(=O)C3CC3)c2)ccc1NC(=O)Nc1cc(OC(F)(F)F)ccc1F [Exe. 195] | 790 |  |  |  | 
11.8 | 14.6 | 13 | Cc1cc(Oc2ccnc(NC(=O)C3CC3)c2)ccc1NC(=O)Nc1ccc(F)c(OC(F)(F)F)c1 [Exe. 196] | 2500 |  |  |  | 
8.4 | 5.9 | 9 | O=C(Nc1ccc(Oc2ccnc(NC(=O)C3CC3)c2)cc1F)Nc1cc(C(F)(F)F)ccc1F [Exe. 209] | 51 |  |  |  | 
13.2 | 14.5 | 19 | O=C(Nc1ccc(F)c(OC(F)(F)F)c1)Nc1ccc(Oc2ccnc(NC(=O)C3CC3)c2)cc1F [Exe. 215] | 618 |  |  |  | 
9.9 | 2.3 | 8.9 | CC(F)(F)c1cccc(NC(=O)Nc2ccc(Oc3ccnc(NC(=O)C4CC4)c3)cc2F)c1 [Exe. 217] | 178 |  |  |  | 
17.2 | 34.4 | 27 | Cc1ccc(Oc2ccnc(NC(=O)C3CC3)c2)cc1NC(=O)Nc1cc(C(C)(F)F)ccc1F [Exe. 227] | 17800 |  |  |  | 
11.7 | 12 | 20.7 | Cc1cc(NC(=O)Nc2ccc(F)c(C(F)(F)F)c2)ccc1Oc1ccnc(NC(=O)C2CC2)c1 [Exe. 230] | 830 |  |  |  | 
13.9 | 730 | 3.7 | O=C(Nc1ccc(Oc2ccnc(NC(=O)C3CC3)c2)cc1)Nc1cc(OCC2CNC2)cc(C(F)(F)F)c1 [Exe. 237, N-[4-[4-[[3-(azetidin-3-ylmethoxy)-5-(trifluoromethyl)phenyl]carbamoylamino]phenoxy]-2-pyridyl]cyclopropanecarboxamide] | 14900 |  |  |  | 
9.7 | 27.2 | 7 | Nc1cc(NC(=O)Nc2ccc(Oc3ccnc(NC(=O)C4CC4)c3)c(F)c2)cc(C(F)(F)F)c1 [Exe. 239] | 930 |  |  |  | 
17.9 | 61.5 | 9.1 | CN1CC(Oc2cc(NC(=O)Nc3ccc(Oc4ccnc(NC(=O)C5CC5)c4)cc3)cc(C(F)(F)F)c2)C1 [Exe. 241, N-[4-[4-[[3-(1-methylazetidin-3-yl)oxy-5-(trifluoromethyl)phenyl]carbamoylamino]phenoxy]-2-pyridyl]cyclopropanecarboxamide] | 1770 |  |  |  | 
